d = 2'-deoxy (DNA); r = 2'-OH (RNA)
Columns and labels:
Assay type in all cases: cell-based
[1] = tested on: human primary lung small airway epithelial cells (HSAEC); test: FACS detection of intercellular delivery of oligos in HSAEC; conditions: for cells with intercellular signals of the oligos, Arginine compared with lipofectamine (FACS): 10 ul/well Arginine vs lipofectamine
[2] = tested on: primary human lung small airway epithelial cells; test: Fluorescence microscopy of oligo entry into HSAEC; conditions: 24-48 hours, fluorescent filter 10x/20x, lipofectamine, poly-arginine or no reagent per FIG. 1
[3] = tested on: primary human lung bronchial/tracheal epithelial cells; test: Fluorescence microscopy of oligo entry into HBTEC; conditions: 24-48 hours, fluorescent filter 10x/20x, delivery per FIG. 20
[4] = tested on: Human Primary Nasal Epithelial Cells; test: Fluorescence microscopy of oligo entry into HNEpC; conditions: 24-48 hours, fluorescent filter 10x/20x, delivery per FIG. 35

Substance	cells with intercellular signals of the oligos, Arginine compared with lipofectamine (FACS) [1]	intensities of fluorescent signals in cells (FACS) vs no-treatment control ([1]; Arginine only (10 ul/well))	intensities of fluorescent signals in cells (FACS) vs no-treatment control ([1]; with lipofectamine)	intensities of fluorescent signals in cells (FACS) vs no-treatment control ([1]; without lipofectamine or Arginine reagents)	entry into cells, microscopic analysis [2]	entry into cells, microscopic analysis [3]	entry into cells, microscopic analysis [4]
TGTTAATTGGAACGCCTTGTC (Cy3 label, position not given here) [VS_ASO_2-Cy3]	more cells with intercellular signals of the oligos	significantly higher	significantly higher				
TGTTAATTGGAACGCCTTGTC (FANA modified, pattern not given here, FITC label) [VS_ASO_1-FANA-FITC]				significantly stronger	entry	entry	can enter epithelial cells
VS_DsiRNA-Cy5: DsiRNA SEQ ID NOs: 23 & 24, target N-protein, Cy5 labeled (chain 1 AAACUAAAAUGUCUGAUAAUGGACC; chain 2 GGUCCAUUAUCAGACAUUUUAGUUUGU; chain 1: sugars from the 5' end r23 d2, backbone not given here; chain 2: chemistry not given here; Cy5 label)	more cells with intercellular signals of the oligos	significantly higher	significantly higher		entry	entry	can enter epithelial cells

Reference: patent publication US11732264B2, “Compositions and methods for treating COVID-19” (Vast Sea Biotechnology, Inc., priority 2020, dated 2023)
